Data set [1] relates to AVEFA: wild oats (Avena fatua). As to the kind of experiment: Post-Emergent Test I herbicidal activity. The settings on record: 4 Kg ai/ha. Type of data set: in vivo. As to the method: (§1) Post-Emergent Test I: Seeds test species were obtained from commercial suppliers and planted into a 5″-round pot containing soil-less media mix (Metro-Mix 360®, Sun Gro Horticulture). Postemergence treatments were planted 8-12 days (d) prior to application and cultured in a greenhouse equipped with supplemental light sources to provide a 16 hour (h) photoperiod at 24-29° C. All pots were surface irrigated. Approximately 10 milligrams (mg) of each compound were dissolved in 1.3 mL acetone-DMSO (97:3, v/v) and diluted with 4.1 mL water-isopropanol-crop oil concentrate (78:20:2, v/v/v) containing 0.02% Triton X-155. Treatments were serial diluted with the above formulation solvent to provide 1.85, 0.926, 0.462 and 0.231 mg/mL of test compound delivered in 2.7 mL/pot (roughly equivalent to 4.0, 2.0, 1.0, and 0.5 kg/ha, respectively). Formulated compounds were applied using a DeVilbiss® compressed air sprayer at 2-4 pounds per square inch (psi). Following treatment, pots were returned to the greenhouse for the duration of the experiment. All pots were sub-irrigated as need to provide optimum growing conditions. All pots were fertilized one time per week by subirrigating with Peters Peat-Lite Special® fertilizer (20-10-20). Phytotoxicity ratings were obtained 10 days after treatment postemergence applications. All evaluations were made visually on a scale of 0 to 100 where 0 represents no activity and 100 represents complete plant death. Visual assessments of plant injury were made based on growth reduction, discoloration, leaf deformity and necrosis.

Data set [2] has as its system ECHCG: barnyardgrass (Echinochloa crus-galli). As to the kind of experiment: Post-Emergent Test I herbicidal activity. Type of data set: in vivo. To be noted: 4 Kg ai/ha. The method, then: as §1
Data set [3] relates to HELAN: sunflower (Helianthus annuus). As to the kind of experiment: Post-Emergent Test I herbicidal activity. Type of data set: in vivo. To be noted: 4 Kg ai/ha. The method, then:
as §1

For data set [4], the system named is IPOHE: ivyleaf morningglory (Ipomoea hederecea). As to the kind of experiment: Post-Emergent Test I herbicidal activity. It is filed as in vivo. To be noted: 4 Kg ai/ha. As to the method:
as §1

The subject of data set [5] is SETFA: giant foxtail (Setaria faberi). Briefly: Post-Emergent Test I herbicidal activity. Type of data set: in vivo. To be noted: 4 Kg ai/ha. As to the method: as §1

As a reminder, the melting point is the temperature of the solid-liquid transition.

For the compound `COC(=O)c1nc(-c2ccc3nonc3c2F)cc(N)c1Cl` [Compound 6, Methyl 4-amino-3-chloro-6-(4-fluorobenzo[c][1,2,5]oxadiazol-5-yl)picolinate], the “Visual Growth Reduction (%) 10 Days After Application AVEFA” value in data set [1] is recorded as “G (0-29)”. Moreover, in data set [2], the “Visual Growth Reduction (%) 10 Days After Application ECHCG” value is “G (0-29)”. Moreover, the “Visual Growth Reduction (%) 10 Days After Application HELAN” value in data set [3] is listed as “G (0-29)”. Besides, in data set [4], the “Visual Growth Reduction (%) 10 Days After Application IPOHE” value is reported as “G (0-29)”. Besides, the “Visual Growth Reduction (%) 10 Days After Application SETFA” value in data set [5] is reported as “G (0-29)”.

For `Nc1cc(-c2cc3nonc3cc2F)nc(C(=O)O)c1Cl` [Compound 7], the melting point was 177 to 178 °C.

Values taken from US9006250B2, “4-amino-6-(heterocyclic)picolinates and 6-amino-2-(heterocyclic)pyrimidine-4-carboxylates and their use as herbicides” (Dow AgroSciences, LLC, priority 2013, dated 2015).
